Among the data in US8426433B2, priority 2007, dated 2013) are IC50 and LD50 values, retold here.

The first data set relates to endogenous thrombin potential in normal donor plasma (PPP). In words: Thrombin generation test (endogenous thrombin potential) in normal donor plasma. Format: biochemical. The following applies: read-out: IC50 (50% reduction in endogenous thrombin potential). The source says: This method was described in detail in many papers (Hemker H C, Giesen P L, Ramjee M, Wagenvoord R, Beguin S. The thrombogram: monitoring thrombin generation in platelet-rich plasma. Thromb. Haemost., 2000; 83(4): 589-591; Hemker H C, AlDieri R, Beguin S. Thrombin generation assays: accruing clinical relevance. Curr. Opin. Hematol., 2004, 11(3):170-175; Hemker H C, Giesen P, AlDieri R, Regnault V, de Smed E, Wagenvoord R, Lecompte T, Beguin S. The calibrated automated thrombogram (CAT): a universal routine test for hyper- and hypocoagulability. Pathophysiol. Haemost. Thromb., 2002, 32(5-6):249-253). The test is used to measure the kinetics and total quantity of active thrombin generated in a plasma sample over a specified time at a standard clotting activation level in the sample. These applicants' method is suitable for measuring thrombin concentration using a slow-action fluorogenic substrate (BOC-Ile-Gly-Arg-AMC), which gives a highly fluorescent product, 7-amino-4-methylcoumarin (AMC), when broken d own by thrombin. The use of a fluorogenic, rather than chromogenic, substrate is dictated by the fact that the fluorescence level in the sample is virtually unaffected by the solid fibrin clot formed in the metering cell, but this is a qualification that restricts the application of a chromogenic substrate (Hemker H C, Giesen P, AlDieri R, Regnault V, de Smed E, Wagenvoord R, Lecompte T, Beguin S. The calibrated automated thrombogram (CAT): a universal routine test for hyper- and hypocoagulability. Pathophysiol. Haemost. Thromb., 2002, 32(5-6):249-253). On the other hand, it is common knowledge that the bulk of thrombin (about 95%) in the sample is generated after the first clot has already formed (Hemker H C, AlDieri R, Beguin S. Thrombin generation assays: accruing clinical relevance. Curr. Opin. Hematol., 2004, 11(3):170-175).
The kinetics of thrombin generation and ultimately loss in plasma after clotting activation is shown in FIG. 1, which illustrates the relationship between concentration of active thrombin in a plasma sample and time. The area under the thrombin generation time curve (in this invention, from 0 to 50 minutes of incubation) is called endogenous thrombin potential (ETP). The curve is further characterized by tmax, the time when thrombin in the sample reaches maximum concentration, Amax, the maximum thrombin concentration in the system, and tlag, the time before clotting commencement, which is conventionally the time when thrombin reaches a concentration of 5 nM.
Obviously, important clotting information is contained in the shape of thrombin concentration to time curves, as well as the integral ETP level. In particular, against the background of low factor and clotting inhibitor concentration, thrombin concentration maximums can be lower and also broader, although the total ETP might not change at all. The presence of additional thrombin inhibitors in plasma must reduce ETP and maximum attainable thrombin concentration, and increase the clotting lag and the time required for thrombin to achieve maximum concentration.
Measurements were taken as follows: 90 microliters of normal donor plasma (PPP), 0 to 20 microliters of the test substance solution, and 20 to 0 microliters of buffering solution (20 mM of HEPES, 140 mM of NaCal, pH 7.5) were deposited in the holes of a 96 hole board so that the total volume of added substance and buffer is always 20 microliters. Whereupon 20 microliters of a fluorogenic substrate solution (at 5 mM initial concentration) was added to each of the board holes, and plasma was heated for 3 to 5 minutes at 37° C. Next, 25 microliters of a clotting activator solution was added simultaneously (using a multichannel pipette) to all the holes. A thromboplastin solution prepared from a standard thromboplastin reagent diluted to 1/250th of its original concentration by the same buffer further containing 80 mM of CaCl2 to measure the prothrombin time (PT) (RENAM, Russia) was used as activator. […]
For orientation: IC50 means the concentration that inhibits the measured activity by half. As for `Cc1cc(OCCCn2ccsc2=N)cc(OS(=O)(=O)c2ccccc2)c1`, the half-inhibitory concentration (IC50) worked out at 24.8 µM.

Turning to `Cc1cc(OCCC[n+]2ccc(N)cc2)cc(OS(=O)(=O)c2ccccc2)c1` [HC-016s-IOC, 4-amino-1-(3-(3-methyl-5-(benzenesulfonyloxy)phenoxy)propyl)-pyridinium iodide], the half-maximal inhibitory concentration (IC50) was roughly 240 µM.

On to `Cc1cc(OCC[n+]2ccc(N)cc2)cc(OS(=O)(=O)c2ccccc2)c1` [HC-019s-IOC, 4-amino-1-(2-(3-methyl-5-(benzenesulfonyloxy)phenoxy)ethyl)-pyridinium iodide], for which the 50% inhibitory concentration (IC50) was determined as 0.25 µM.

On to `Cc1cc(OCCC[n+]2ccc(N)cc2)cc(OS(=O)(=O)c2ccccc2Cl)c1` [HC-023s-IOC], for which the concentration for half-maximal inhibition (IC50) was 40 µM.

As to `CNc1ccc(S(=O)(=O)N(C)c2ccccc2)cc1NC(=O)CC[n+]1ccc(N)cc1.[Cl-]` [HC_028s_IOC], the concentration for half-maximal inhibition (IC50) was roughly 9 µM.

Regarding `Cc1cc(OCCC[n+]2ccc(N)cc2)cc(OS(=O)(=O)c2ccccc2F)c1` [HC_029s_IOC, 4-amino-1-(3-(3-methyl-5-(2-fluorobenzenesulfonyloxy)phenoxy)propyl)-pyridinium iodide], the IC50 was found to be 27 µM.

As for `Cc1cc(OCCC[n+]2ccsc2N)cc(OS(=O)(=O)c2ccccc2F)c1` [HC_030s_IOC], the 50% inhibitory concentration (IC50) was roughly 8.6 µM.

`Cc1cc(OCCCSC(=N)N)cc(OS(=O)(=O)c2ccccc2F)c1` [HC_031s_IOC]: the IC50 was 1.24 µM.

`C/N=C(/N)SCCCOc1cc(C)cc(OS(=O)(=O)c2ccccc2Cl)c1` [HC_032s_IOC]: the half-maximal inhibitory concentration (IC50) was 25.2 µM.

In the case of `C/N=C(/N)CSCCCOc1cc(C)cc(OS(=O)(=O)c2ccccc2Cl)c1` [HC_033s_IOC], the half-inhibitory concentration (IC50) worked out at 0.527 µM.

For `Cc1cc(OCC[n+]2ccc(N)cc2)cc(OS(=O)(=O)c2ccccc2S(C)(=O)=O)c1` [HC_036s_IOC], the concentration for half-maximal inhibition (IC50) was determined as 0.158 µM.

Consider `Cc1cc(OCC[n+]2ccc(N)cc2)cc(OS(=O)(=O)c2ccccc2F)c1` [HC_037s_IOC], for which the IC50 is roughly 0.1 µM.

With `Cc1ccc(S(=O)(=O)Oc2cc(C)cc(OCC[n+]3ccc(N)cc3)c2)cc1` [HC_038s_IOC], the IC50 was roughly 4 µM.

For `Cc1cc(OCC[n+]2ccc(N)cc2)cc(OS(=O)(=O)c2ccc(Cl)cc2)c1` [HC_039s_IOC], the IC50 is 0.15 µM.

For the molecule `Cc1cc(OCCSC(=N)N)cc(OS(=O)(=O)c2ccccc2S(C)(=O)=O)c1` [HC_040s_IOC], the IC50 came out at 0.8 µM.

In the case of `Nc1cc[n+](CCOc2cccc(NS(=O)(=O)c3ccccc3)c2)cc1` [HC_041s_IOC], the 50% inhibitory concentration (IC50) came out at 1.6 µM.

In the case of `Cc1cc(OCC[n+]2ccsc2N)cc(OS(=O)(=O)c2ccccc2Cl)c1` [HC_045s_IOC], the IC50 came to 16 µM.

As to `Cc1cc(OCC[n+]2ccc(N)nc2)cc(OS(=O)(=O)c2ccccc2)c1` [HC_047s_IOC], the IC50 amounted to 2.5 µM.

System in another data set: not listed separately
In words: Acute toxicity, LD50. The following applies: mouse, in vivo; mice; 0.9% NaCl.
As usually defined, the LD50 is the dose expected to kill half of the subjects tested. On to `Cc1cc(OCCCn2ccsc2=N)cc(OS(=O)(=O)c2ccccc2)c1`, for which the LD50 was greater than 199 mg/kg.

The data set is the same for the next values; noted with them: mouse, in vivo; mice; 0.9% NaCl + cremophor 20%.
Take `Cc1cc(OCCCSC(=N)N)cc(OS(=O)(=O)c2ccccc2)c1.I` [HC-018s-IOC, 3-(3-methyl-5-(benzenesulfonyloxy)phenoxy)propyl-isothiouronium iodide]: the LD50 is less than 441 mg/kg.

As for `Cc1cc(OCC[n+]2ccc(N)cc2)cc(OS(=O)(=O)c2ccccc2)c1` [HC-019s-IOC, 4-amino-1-(2-(3-methyl-5-(benzenesulfonyloxy)phenoxy)ethyl)-pyridinium iodide], the median lethal dose (LD50) was greater than 278 mg/kg.

Consider `Cc1cc(OCCSC(=N)N)cc(OS(=O)(=O)c2ccccc2)c1` [HC-020s-IOC, 2-(3-methyl-5-(benzenesulfonyloxy)phenoxy)ethyl-isothiouronium iodide], for which the LD50 was greater than 1110 mg/kg.

Turning to `CNc1ccc(S(=O)(=O)N(C)c2ccccc2)cc1NC(=O)CC[n+]1ccc(N)cc1.[Cl-]` [HC_028s_IOC], the LD50 stood at 257 ± 31 mg/kg.

System in a further data set: not given
Assay: not given
The following applies: Argatroban after clinical testing; cited from earlier work.
For `CC1CNc2c(cccc2S(=O)(=O)N[C@@H](CCCNC(=N)N)C(=O)N2CC[C@@H](C)C[C@@H]2C(=O)O)C1` (stereo partly drawn) [Argatroban], the median lethal dose (LD50) was 475 mg/kg.
